# Data from patent US20220289708A1, “SUBSTITUTED N-PHENYL URACILS, SALTS THEREOF AND THEIR USE AS HERBICIDAL AGENTS” (Bayer Aktiengesellschaft, priority 2019, published 2022).
# Key:
# Assay type in all cases: in vivo
# [1] = system: Triticum aestivum; assay: Post-emergence crop plant compatibility
# Procedure, shortened: (§1)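 Greenhouse crop plants in sandy loam sprayed at one-leaf stage (2-3 weeks after sowing) with WP or EC formulations plus 0.5% additive, 600 l/ha water, at 5 g/ha or 20 g/ha. Damage scored visually after about 3 weeks as % versus untreated controls (100% = plants dead).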
# [2] = system: Oryza sativa; assay: Post-emergence crop plant compatibility
# Procedure, shortened: as §1
# [3] = system: Hordeum murinum; assay: Post-emergence herbicidal action; details: application rate 20 g/ha
# Procedure, shortened: (§2)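 Greenhouse-grown plants in sandy loam treated at one-leaf stage, 2–3 weeks after sowing, with WP or EC formulations sprayed as aqueous suspension/emulsion plus 0.5% additive at 600 l/ha water; rates 20 g/ha and less. Visual rating after about 3 weeks versus untreated controls (100% = plants dead, 0% = like control).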
# [4] = system: Matricaria inodora; assay: Post-emergence herbicidal action; details: rated visually after about 3 weeks vs untreated controls
# Procedure, shortened: as §2
# [5] = system: Pharbitis purpurea; assay: Post-emergence herbicidal action; details: rated visually after about 3 weeks vs untreated controls
# Procedure, shortened: as §2
# [6] = system: Digitaria sanguinalis; assay: Post-emergence herbicidal action; details: rated visually after about 3 weeks vs untreated controls
# Procedure, shortened: as §2
# [7] = system: Veronica persica; assay: Post-emergence herbicidal action
# Procedure, shortened: as §2
# [8] = system: Setaria viridis; assay: Post-emergence herbicidal action; details: rated visually after about 3 weeks vs untreated controls
# Procedure, shortened: as §2
# [9] = system: Echinochloa crus-galli; assay: Post-emergence herbicidal action; details: rated visually after about 3 weeks vs untreated controls
# Procedure, shortened: as §2
# [10] = system: Viola tricolor; assay: Post-emergence herbicidal action
# Procedure, shortened: as §2
# [11] = system: Abutilon theophrasti; assay: Post-emergence herbicidal action; details: rated visually after about 3 weeks vs untreated controls
# Procedure, shortened: as §2
# [12] = system: Stellaria media; assay: Post-emergence herbicidal action; details: application rate 5 g/ha, rated visually after about 3 weeks vs untreated controls
# Procedure, shortened: as §2
# [13] = system: Lolium rigidum; assay: Post-emergence herbicidal action; details: application rate 20 g/ha, rated visually after about 3 weeks vs untreated controls
# Procedure, shortened: as §2
# [14] = system: Polygonum convolvulus; assay: Post-emergence herbicidal action; details: application rate 5 g/ha
# Procedure, shortened: as §2
# [15] = system: Amaranthus retroflexus; assay: Post-emergence herbicidal action; details: rated visually after about 3 weeks vs untreated controls
# Procedure, shortened: as §2
# [16] = system: Alopecurus myosuroides; assay: Post-emergence herbicidal action; details: rated visually after about 3 weeks vs untreated controls
# Procedure, shortened: as §2
# [17] = system: Zea mays; assay: Post-emergence crop plant compatibility; details: application rate 5 g/ha
# Procedure, shortened: as §1
# [18] = system: Avena fatua; assay: Post-emergence herbicidal action; details: application rate 20 g/ha, rated visually after about 3 weeks vs untreated controls
# Procedure, shortened: as §2
# [19] = system: Matricaria inodora; assay: Pre-emergence herbicidal action; details: application rate 20 g/ha
# Description: (§3) B. Pre-Emergence Herbicidal Action and Crop Plant Compatibility Seeds of monocotyledonous and dicotyledonous weed plants and crop plants were placed in plastic or organic planting pots and covered with soil. The compounds of the invention, formulated in the form of wettable powders (WP) or as emulsion concentrates (EC), were then applied to the surface of the covering soil as aqueous suspension or emulsion with addition of 0.5% additive at a water application rate equivalent to 600 l/ha (converted). After the treatment, the pots were placed in a greenhouse and kept under good growth conditions for the test plants. After about 3 weeks, the effect of the preparations was scored visually in comparison with untreated controls as percentages. For example, 100% activity=the plants have died, 0% activity=like control plants. Tables B1 to B13 below show the effects of selected compounds of the general formula (I) according to Tables I.1 to I.36 on various harmful plants and at an application rate corresponding to 80 g/ha or less, which were obtained by the experimental procedure mentioned above.
# [20] = system: Pharbitis purpurea; assay: Pre-emergence herbicidal action; details: application rate 20 g/ha
# Description: as §3
# [21] = system: Digitaria sanguinalis; assay: Pre-emergence herbicidal action; details: application rate 20 g/ha
# Description: as §3
# [22] = system: Veronica persica; assay: Pre-emergence herbicidal action; details: application rate 20 g/ha
# Description: as §3
# [23] = system: Avena fatua; assay: Pre-emergence herbicidal action; details: application rate 80 g/ha
# Description: as §3
# [24] = system: Setaria viridis; assay: Pre-emergence herbicidal action; details: application rate 20 g/ha
# Description: as §3
# [25] = system: Echinochloa crus-galli; assay: Pre-emergence herbicidal action
# Description: as §3
# [26] = system: Viola tricolor; assay: Pre-emergence herbicidal action; details: application rate 20 g/ha
# Description: as §3
# [27] = system: Abutilon theophrasti; assay: Pre-emergence herbicidal action; details: application rate 20 g/ha
# Description: as §3
# [28] = system: Lolium rigidum; assay: Pre-emergence herbicidal action; details: application rate 80 g/ha
# Description: as §3
# [29] = system: Polygonum convolvulus; assay: Pre-emergence herbicidal action; details: application rate 20 g/ha
# Description: as §3
# [30] = system: Amaranthus retroflexus; assay: Pre-emergence herbicidal action; details: application rate 20 g/ha
# Description: as §3
# [31] = system: Alopecurus myosuroides; assay: Pre-emergence herbicidal action; details: application rate 80 g/ha
# Description: as §3
# [32] = system: Zea mays; assay: Pre-emergence crop plant compatibility; details: application rate 20 g/ha
# Description: B. Pre-Emergence Herbicidal Action and Crop Plant Compatibility
# as §3, with “Seeds” for “B. Pre-Emergence Herbicidal Action and Crop Plant Compatibility Seeds”, “plants.” for “plants. Tables B1 to B13 below show the effects of selected compounds of the general formula (I) according to Tables I.1 to I.36 on various harmful plants and at an application rate corresponding to 80 g/ha or less, which were obtained by the experimental procedure mentioned above.”
# Tables B14 to B16 below show the crop plant compatibilities of selected compounds of the general formula (I) according to Tables I.1 to I.36 at an application rate corresponding to 20 g/ha, which were obtained in experiments according to the experimental procedure mentioned above. Here, the observed effects on selected crop plants are stated in comparison to the untreated controls (values in %).
SMILES,Oryza sativa (efficacy in %) ([2]; application rate 5 g/ha) [%],Pharbitis purpurea (efficacy in %) ([5]; application rate 5 g/ha) [%],Digitaria sanguinalis (efficacy in %) ([6]; application rate 5 g/ha) [%],Echinochloa crus-galli (efficacy in %) ([9]; application rate 5 g/ha) [%],Abutilon theophrasti (efficacy in %) ([11]; application rate 5 g/ha) [%],Amaranthus retroflexus (efficacy in %) ([15]; application rate 5 g/ha) [%],Matricaria inodora (efficacy in %) [19] [%],Pharbitis purpurea (efficacy in %) [20] [%],Digitaria sanguinalis (efficacy in %) [21] [%],Veronica persica (efficacy in %) [22] [%],Avena fatua (efficacy in %) [23] [%],Setaria viridis (efficacy in %) [24] [%],Viola tricolor (efficacy in %) [26] [%],Abutilon theophrasti (efficacy in %) [27] [%],Lolium rigidum (efficacy in %) [28] [%],Polygonum convolvulus (efficacy in %) [29] [%],Amaranthus retroflexus (efficacy in %) [30] [%],Alopecurus myosuroides (efficacy in %) [31] [%],Matricaria inodora (efficacy in %) ([4]; application rate 5 g/ha) [%],Veronica persica (efficacy in %) ([7]; application rate 5 g/ha) [%],further results
Cn1c(C(F)(F)F)cc(=O)n(-c2cc(Sc3cccnc3SCC(=O)OCC3CCOC3)c(Cl)cc2F)c1=O (stereo not shown) [I.10-72],20,100,80,100,100,100,–,–,–,–,–,–,–,–,–,–,–,–,–,–,Triticum aestivum (efficacy in %) ([1]; application rate 20 g/ha): 20%; Hordeum murinum (efficacy in %) [3]: 80%; Matricaria inodora (efficacy in %) ([4]; application rate 20 g/ha): 100%; Veronica persica (efficacy in %) ([7]; application rate 20 g/ha): 80%; Setaria viridis (efficacy in %) ([8]; application rate 5 g/ha): 90%; Viola tricolor (efficacy in %) ([10]; application rate 5 g/ha): 100%; Stellaria media (efficacy in %) [12]: 90%; Lolium rigidum (efficacy in %) [13]: 80%; Polygonum convolvulus (efficacy in %) [14]: 100%; Alopecurus myosuroides (efficacy in %) ([16]; application rate 20 g/ha): 80%
CCOCCOC(=O)COc1ncccc1Oc1cc(-n2c(=O)cc(C(F)(F)F)n(C)c2=O)c(F)cc1[N+](=O)[O-] [I.14-2],–,–,–,–,–,–,–,–,–,–,–,–,–,–,–,–,–,–,–,–,Zea mays (efficacy in %) [17]: 20%; Oryza sativa (efficacy in %) ([2]; application rate 20 g/ha): 10%; Matricaria inodora (efficacy in %) ([4]; application rate 20 g/ha): 100%; Pharbitis purpurea (efficacy in %) ([5]; application rate 20 g/ha): 100%; Digitaria sanguinalis (efficacy in %) ([6]; application rate 20 g/ha): 100%; Veronica persica (efficacy in %) ([7]; application rate 20 g/ha): 100%; Avena fatua (efficacy in %) [18]: 100%; Setaria viridis (efficacy in %) ([8]; application rate 20 g/ha): 100%; Echinochloa crus-galli (efficacy in %) ([9]; application rate 20 g/ha): 100%; Viola tricolor (efficacy in %) ([10]; application rate 20 g/ha): 100%; Abutilon theophrasti (efficacy in %) ([11]; application rate 20 g/ha): 100%; Lolium rigidum (efficacy in %) [13]: 90%; Amaranthus retroflexus (efficacy in %) ([15]; application rate 20 g/ha): 100%; Alopecurus myosuroides (efficacy in %) ([16]; application rate 20 g/ha): 100%
Cn1c(C(F)(F)F)cc(=O)n(-c2cc(Oc3cccnc3OCC(=O)OC3COC3)c(Cl)cc2F)c1=O [I.15-115],–,100,–,–,100,100,–,–,–,–,–,–,–,–,–,–,–,–,100,100,Triticum aestivum (efficacy in %) ([1]; application rate 5 g/ha): 20%; Hordeum murinum (efficacy in %) [3]: 100%; Digitaria sanguinalis (efficacy in %) ([6]; application rate 20 g/ha): 100%; Avena fatua (efficacy in %) [18]: 90%; Setaria viridis (efficacy in %) ([8]; application rate 20 g/ha): 100%; Echinochloa crus-galli (efficacy in %) ([9]; application rate 20 g/ha): 100%; Viola tricolor (efficacy in %) ([10]; application rate 5 g/ha): 100%; Stellaria media (efficacy in %) [12]: 100%; Lolium rigidum (efficacy in %) [13]: 90%; Polygonum convolvulus (efficacy in %) [14]: 100%; Alopecurus myosuroides (efficacy in %) ([16]; application rate 5 g/ha): 80%
"Cn1c(C(F)(F)F)cc(=O)n(-c2cc(Oc3cccnc3OCC(=O)OCc3ccc(C(F)(F)F)nc3)c(Cl)cc2F)c1=O [I.15-350, [6-(Trifluoromethyl)pyridin-3-yl]methyl [(3-{2-chloro-4-fluoro-5-[3-methyl-2,6-dioxo-4-(trifluoromethyl)-3,6-dihydropyrimidin-1(2H)-yl]phenoxy}pyridin-2-yl)oxy]acetate]",20,100,–,100,100,100,100,100,100,100,100,100,100,100,100,100,100,100,80,100,Echinochloa crus-galli (efficacy in %) ([25]; application rate 80 g/ha): 100%; Triticum aestivum (efficacy in %) ([1]; application rate 5 g/ha): 20%; Zea mays (efficacy in %) [32]: 0%

# The next lines start with results.
Oryza sativa (efficacy in %) ([2]; application rate 5 g/ha) [%],SMILES,Pharbitis purpurea (efficacy in %) ([5]; application rate 5 g/ha) [%],Digitaria sanguinalis (efficacy in %) ([6]; application rate 5 g/ha) [%],Echinochloa crus-galli (efficacy in %) ([9]; application rate 5 g/ha) [%],Abutilon theophrasti (efficacy in %) ([11]; application rate 5 g/ha) [%],Amaranthus retroflexus (efficacy in %) ([15]; application rate 5 g/ha) [%],Matricaria inodora (efficacy in %) [19] [%],Pharbitis purpurea (efficacy in %) [20] [%],Digitaria sanguinalis (efficacy in %) [21] [%],Veronica persica (efficacy in %) [22] [%],Avena fatua (efficacy in %) [23] [%],Setaria viridis (efficacy in %) [24] [%],Viola tricolor (efficacy in %) [26] [%],Abutilon theophrasti (efficacy in %) [27] [%],Lolium rigidum (efficacy in %) [28] [%],Polygonum convolvulus (efficacy in %) [29] [%],Amaranthus retroflexus (efficacy in %) [30] [%],Alopecurus myosuroides (efficacy in %) [31] [%],Matricaria inodora (efficacy in %) ([4]; application rate 5 g/ha) [%],Veronica persica (efficacy in %) ([7]; application rate 5 g/ha) [%],further results
20,CSCCOC(=O)COc1ncccc1Oc1cc(-n2c(=O)cc(C(F)(F)F)n(C)c2=O)c(F)cc1Cl [I.15-31],100,100,–,100,100,100,100,100,100,100,100,100,100,100,100,100,100,100,100,Echinochloa crus-galli (efficacy in %) ([25]; application rate 20 g/ha): 100%
20,Cn1c(C(F)(F)F)cc(=O)n(-c2cc(Oc3cccnc3OCC(=O)OCc3ccccn3)c(Cl)cc2F)c1=O [I.15-286],100,100,100,100,100,100,100,100,100,100,100,100,100,100,100,100,100,90,100,Echinochloa crus-galli (efficacy in %) ([25]; application rate 20 g/ha): 80%; Zea mays (efficacy in %) [32]: 20%
20,Cn1c(C(F)(F)F)cc(=O)n(-c2cc(Oc3cccnc3OCC(=O)OCc3cccnn3)c(Cl)cc2F)c1=O [I.15-301],100,–,100,100,100,100,100,100,80,100,100,100,100,100,100,100,100,–,100,Echinochloa crus-galli (efficacy in %) ([25]; application rate 20 g/ha): 80%; Zea mays (efficacy in %) [32]: 0%
